The source of these data is patent EP4748844A1, “AZETIDINE COMPOUND AND MEDICAL USE THEREOF” (SHANGHAI INSTITUTE OF MATERIA MEDICA, CHINESE ACADEMY OF …, priority 2023, dated 2025).

In experiment [1] the test system is ISG gene expression induced by MSA-2 in human THP1-Blue-ISG cells. Put plainly: Inhibition of MSA-2-induced ISG gene expression in human THP1-Blue-ISG cells (Quanti-Blue, OD650). It is filed as cell-based. The note with it: STING agonist MSA-2 10 µM, incubated for 24 hours. As to the method:
10 µL of compound diluted with PBS/physiological saline was added to each well of a 96 well cell culture plate. The STING agonist was MSA-2, which was added to the counted cell suspension at a final concentration of 10 µM. For the control group without compounds, 10 µL of PBS/physiological saline containing 2% DMSO was added. 3 replicate wells were set in each group. THP1-Blue-ISG cells were counted and adjusted to a cell concentration of 4× 10^5/mL, and 190 µL of cells containing STING agonist were added to each well for incubation. Therefore, the final volume of each test well was 200 µL, the content of DMSO was 0.1%, and the final concentration of the compound tested was 10/3.3/1.1/0.4/0.13/0.04/0.013/0.004 µM, incubated for 24 hours. In addition, 190 µL of cells without STING agonist and 10 µL of physiological saline containing 2% DMSO were added to the blank group. 3 replicate wells were set in each group.
After 24 hours, 20 µL of culture medium was taken from each well and transferred to a new 96 well plate. 180 µL of chromogenic solution Quanti-Blue was added. The plate was placed in a 37 °C incubator. After 2 hours, the OD650 values were measured.
Result analysis: Inhibition rate (%) = (Con(OD650)−Treated(OD650))/Con(OD650) × 100% [formula]
(§1) The IC50 calculation of inhibitors was implemented using the Graphpad Prism 8 software's calculation method log (inhibitor) vs. response - Variable slope (four parameters), with a constrain interval of 0-100.

The subject of experiment [2] is DMXAA induced ISG gene expression in mouse RAW-Lucia cells. Put plainly: Inhibition of DMXAA-induced ISG gene expression in mouse RAW-Lucia cells (QUANTI-Luc). It is filed as cell-based. The note with it: STING agonist DMXAA 50 µM, incubated for 24 hours. The protocol:
10 µL of compound diluted with PBS/physiological saline was added to each well of a 96 well cell culture plate. The STING agonist was DMXAA, which was added to the counted cell suspension at a final concentration of 50 µM. For the control group without compounds, 10 µL of PBS/physiological saline containing 2% DMSO was added. 3 replicate wells were set in each group. RAW-Lucia cells were counted and adjusted to a cell concentration of 4×10^5/mL, and […] of cells were added to each well for incubation. Therefore, the final volume of each test well was 200 µL, the content of DMSO was 0.1%, and the final concentration of the compound tested was 10/3.3/1.1/0.4/0.13/0.04/0.013/0.004 µM. The final concentration of STING agonist DMXAA was 50 µM. The mixture was incubated for 24 hours. In addition, 200 µL of culture medium was added to the blank group. 3 replicate wells were set in each group.
After 24 hours, 20 µL of culture medium was taken from each well and transferred to a new 96 well plate with photopermeable bottom. 50 µL of the luciferase detection reagent QUANTI-Luc™ was added, and the […] was immediately measured (avoid light).
Result analysis: Inhibition rate (%) = (Con(Lum)−Treated(Lum))/Con(Lum) × 100% [formula]
as §1

A word on the IC50: it is the point on the concentration scale where inhibition reaches its midpoint. A lower IC50 goes with greater potency. Turning to `CC1(C)C(=O)N(CC2CN(c3ccsc3)C2)c2cc(C(=O)Nc3c[nH]c4ccccc34)ccc21` [Example I-20, N-(1H-indol-3-yl)-3,3-dimethyl-2-oxo-1-((1-(thien-3-yl)azetidin-3-yl)methyl)indolin-6-carboxamide], the IC50 in experiment [1] is 296 nM; in experiment [2], 16 nM. Taken in the same sequence, the figures for `O=C(Nc1c[nH]c2ccccc12)c1cc2c(s1)SCC(=O)N2Cc1ccccc1` [Example I-6, 1-benzyl-N-(1H-indol-3-yl)-2-oxo-2,3-dihydro-1H-thieno[2,3-b][1,4]thiazin-6-carboxamide] were 392 nM and 33 nM. Taken in the same sequence, the figures for `CC1(C)C(=O)N(Cc2ccccc2)c2cc(C(=O)Nc3c[nH]c4ccccc34)ccc21` [Example I-76, 1-benzyl-N-(1H-indol-3-yl)-3,3-dimethyl-2-oxoindolin-6-carboxamide] were 235 nM and 2.24 nM.

Turning to `O=C(Nc1ccc2c(c1)N(Cc1ccccc1)C(=O)CS2)Nc1c[nH]c2ccccc12` [A, reference compound], the results for the IC50 in experiment [1] and in experiment [2] were 2300 nM and 161 nM, respectively.

Regarding `O=C(Nc1c[nH]c2ccccc12)c1ccc2c(c1)N(CC1CC1)C(=O)CS2` [Example I-62, 4-(cyclopropylmethyl)-N-(1H-indol-3-yl)-3-oxo-3,4-dihydro-2H-benzo[b][1,4]thiazin-6-carboxamide], the IC50 in experiment [1] is 121 nM; in experiment [2], 38 nM. Taken in the same sequence, the figures for `CC1(C)C(=O)N(CC2CC2)c2cc(C(=O)Nc3c[nH]c4ccccc34)ccc21` [Example I-78, 1-cyclopropylmethyl-N-(1H-indol-3-yl)-3,3-dimethyl-2-oxoindolin-6-carboxamide] were 334 nM and 7.4 nM.

On to `CC1(C)C(=O)N(Cc2ccco2)c2cc(C(=O)Nc3c[nH]c4ccccc34)ccc21` [Example I-80, 1-(furan-2-ylmethyl)-N-(1H-indol-3-yl)-3,3-dimethyl-2-oxoindolin-6-carboxamide], for which the IC50 in experiment [1] came to 626 nM; in experiment [2], 24 nM. Taken in the same sequence, the figures for `O=C(Nc1c[nH]c2ccccc12)c1ccc2c(c1)N(Cc1ccsc1)C(=O)CS2` [Example I-55, N-(1H-indol-3-yl)-3-oxo-4-(thien-3-ylmethyl)-3,4-dihydro-2H-benzothien[b][1,4]thiazin-6-carboxamide] were 56 nM and 80 nM. Taken in the same sequence, the figures for `COc1cccc(N2CC(CN3C(=O)C(C)(C)c4ccc(C(=O)Nc5c[nH]c6ccccc56)cc43)C2)c1` [Example I-15, N-(1H-indol-3-yl)-1-((1-3-methoxyphenylazetidin-3-yl)methyl)-3,3-dimethyl-2-oxoindolin-6-carboxamide] were 132 nM and 61 nM. Taken in the same sequence, the figures for `CC1(C)C(=O)N(CCc2ccccc2)c2cc(C(=O)Nc3c[nH]c4ccccc34)ccc21` [Example I-81, N-(1H-indol-3-yl)-3,3-dimethyl-2-oxo-1-phenethylindolin-6-carboxamide] were 237 nM and 0.42 nM.

Take `O=C(Nc1c[nH]c2ccccc12)c1ccc2c(c1)SCC(=O)N2Cc1ccoc1` [Example I-64, 4-(furan-3-ylmethyl)-N-(1H-indol-3-yl)-3-oxo-3,4-dihydro-2H-benzo[b][1,4]thiazin-7-carboxamide]: in experiment [1], the IC50 was 139 nM.

With `CC1(C)C(=O)N(CC2CN(c3ccccc3)C2)c2cc(NC(=O)Nc3c[nH]c4ccccc34)ccc21` [Example I-12, 1-(3,3-dimethyl-2-oxo-1-((1-phenylazetidin-3-yl)methyl)indolin-6-yl)-3-(1H-indol-3-yl)urea], the IC50 in experiment [1] turned out to be 375 nM. Turning to `O=C(Nc1cc2c(s1)SCC(=O)N2Cc1ccccc1)Nc1c[nH]c2ccccc12` [Example I-7, 1-(1-benzyl-2-oxo-2,3-dihydro-1H-thieno[2,3-b][1,4]thiazin-6-yl)-3-(1H-indol-3-yl)urea], the half-maximal inhibitory concentration (IC50) in experiment [1] came to 390 nM.
